From the supplement of paper PMC6045584 come the findings set out here.

± gives the standard deviation of the averaged measurements.

Compound in test [1]: CCN(CC)CCCCNc1ncc2cc(-c3cc(OC)cc(OC)c3)c(NC(=O)NC(C)(C)C)nc2n1
Description: surviving fraction relative to DMSO-only wells; higher = less growth inhibition. Particulars: exposure time: 5 days. The procedure, abridged:
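Continuous five-day exposure to inhibitors at 0.5, 1, 5, 10, 50, 100, 500 and 1000 nM started 24 hours after log-phase tumour cell lines were seeded at 250–500 cells per well in 384-well plates. Luminescence was read after 10 minutes at room temperature. Viability is given as surviving fraction, meaning CellTiter-Glo luminescence normalised to the median of DMSO-only wells.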

Compound in a further test: C=CCNC1=C2C[C@@H](C)C[C@H](OC)[C@H](O)[C@@H](C)/C=C(\C)[C@H](OC(N)=O)[C@@H](OC)/C=C\C=C(/C)C(=O)NC(=CC1=O)C2=O [17-AAG]
As to the kind of experiment: area under dose-response curve of surviving fraction (unscaled, Aref=0) (surviving fraction x log10(nM)); higher = more resistant. Particulars: exposure time: 5 days; dose range 0.5-1000 nM. The procedure, abridged: (§1)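 Each tumour cell line was screened three times in 384-well plates, receiving eight inhibitor concentrations from 0.5 to 1000 nM for five days. CellTiter-Glo luminescence gave viability, normalised to DMSO-only wells. Using the drc R package, surviving fractions were fitted with 3-parameter logistic dose-response curves, and the unscaled activity area over log10 dose (Aref = 0) was taken as the area under the curve.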

Compound in test [2]: CCN(CC)CCCCNc1ncc2cc(-c3cc(OC)cc(OC)c3)c(NC(=O)NC(C)(C)C)nc2n1
The test is described as above. Conditions: exposure time: 5 days; dose range 0.5-1000 nM. The essentials: as §1

Compound in the next test: CC[C@@H](C(=O)[C@@H](C)[C@@H](O)[C@H](C)[C@@H]1O[C@@H]([C@@H](CC)C(=O)O)CC[C@@H]1C)[C@H]1O[C@]2(C=C[C@@H](O)[C@]3(CC[C@@](C)([C@H]4CC[C@](O)(CC)[C@H](C)O4)O3)O2)[C@H](C)C[C@@H]1C [SALINOMYCIN]
The test is described as above. Particulars: exposure time: 5 days; dose range 0.5-1000 nM. The essentials: as §1

Compound in a further test: CN(C)CC[C@H](CSc1ccccc1)Nc1ccc(S(=O)(=O)NC(=O)c2ccc(N3CCN(Cc4ccccc4-c4ccc(Cl)cc4)CC3)cc2)cc1[N+](=O)[O-] [ABT-737]
Described as above. Conditions: exposure time: 5 days; dose range 0.5-1000 nM. The procedure, abridged:
as §1

Compound in another test: COc1cc2c(cc1O)CC[C@@H]1[C@@H]2CC[C@]2(C)[C@@H](O)CC[C@@H]12 [2-METHOXYESTRADIOL]
The description is as above. Conditions: exposure time: 5 days; dose range 0.5-1000 nM. The essentials: as §1

Compound in a further test: COc1ccc(C2=N[C@@H](c3ccc(Cl)cc3)[C@@H](c3ccc(Cl)cc3)N2C(=O)N2CCNC(=O)C2)c(OC(C)C)c1 [NUTLIN3]
The test is described as above. Particulars: exposure time: 5 days; dose range 0.5-1000 nM. The procedure, abridged:
as §1

Compound in the next test: COc1cccc2c1C(=O)c1c(O)c3c(c(O)c1C2=O)C[C@@](O)(C(=O)CO)C[C@@H]3O[C@H]1C[C@H](N)[C@H](O)[C@H](C)O1 [DOXORUBICIN]
The description is as above. Particulars: exposure time: 5 days; dose range 0.5-1000 nM. The procedure, abridged: as §1

Compound in the next test: CS(=O)(=O)CCNCc1ccc(-c2ccc3ncnc(Nc4ccc(OCc5cccc(F)c5)c(Cl)c4)c3c2)o1 [LAPATINIB]
The description is as above. Particulars: exposure time: 5 days; dose range 0.5-1000 nM. The procedure, abridged: as §1

Compound in the next test: CS(=O)(=O)c1ccc(C(=O)Nc2ccc(Cl)c(-c3ccccn3)c2)c(Cl)c1 [VISMODEGIB]
Described as above. Particulars: exposure time: 5 days; dose range 0.5-1000 nM. The procedure, abridged:
as §1

Compound in the next test: Nc1ncn([C@H]2C[C@H](O)[C@@H](CO)O2)c(=O)n1 [DECITABINE]
The test is described as above. Particulars: exposure time: 5 days; dose range 0.5-1000 nM. The essentials:
as §1

Compound in a further test: O=c1[nH]cc(F)c(=O)[nH]1 [FLUOROURACIL]
The test is described as above. Conditions: exposure time: 5 days; dose range 0.5-1000 nM. The procedure, abridged: as §1

Compound in another test: Oc1ccc(/C=C/c2cc(O)cc(O)c2)cc1 [RESVERATROL]
Described as above. Conditions: exposure time: 5 days; dose range 0.5-1000 nM. The essentials: as §1

In the case of G292 BONE, the surviving fraction in test [1] (0.5 nM) was 0.836 ± 0.27; in test [1] (1 nM), 0.97 ± 0.048; in [1] (5 nM), 0.958 ± 0.027; in [1] (10 nM), 0.918 ± 0.042; in test [1] (50 nM) it was 0.495 ± 0.17; in [1] (100 nM) it was 0.387 ± 0.008. Further, the surviving fraction came to 0.181 ± 0.012 in test [1] (500 nM) and 0.18 ± 0.0066 in test [1] (1000 nM). Besides, the “area under dose-response curve” value was found to be 1.84 in the test with 17-AAG; 2.16 in test [2]; 2.65 with SALINOMYCIN; 3.45 with ABT-737; 2.87 in the test with 2-METHOXYESTRADIOL; 3.34 with NUTLIN3. The “area under dose-response curve” value in the test with DOXORUBICIN came out at 1.77; with LAPATINIB, 3.3; in the test with VISMODEGIB, 3.2; in the test with DECITABINE it was 2.61; in the test with FLUOROURACIL, 3.29; with RESVERATROL, 3.42.
On to HCC38 BREAST, for which the surviving fraction in [1] (0.5 nM) stood at 1.15 ± 0.23; in [1] (1 nM), 0.97 ± 0.19; in test [1] (5 nM), 1.15 ± 0.17; in test [1] (10 nM), 1.12 ± 0.19; in test [1] (50 nM) it was 0.979 ± 0.37; in test [1] (100 nM), 1.04 ± 0.18. In addition, the results for the surviving fraction in test [1] (500 nM) and in test [1] (1000 nM) were 0.824 ± 0.17 and 0.846 ± 0.2, respectively. Further, the “area under dose-response curve” value with 17-AAG came to 0.903; with SALINOMYCIN it was 2.83; with NUTLIN3 it was 4.18; with DOXORUBICIN, 1.77; with LAPATINIB, 3; with VISMODEGIB, 2.67. For the same test system, the “area under dose-response curve” value turned out to be 2.64 with DECITABINE and 2.87 with FLUOROURACIL.
HCC70 BREAST: the surviving fraction in test [1] (0.5 nM) is 0.977 ± 0.084; in test [1] (1 nM), 1 ± 0.017; in test [1] (5 nM) it was 0.957 ± 0.12; in test [1] (10 nM), 1.07 ± 0.041; in test [1] (50 nM), 1.05 ± 0.06; in test [1] (100 nM), 1.08 ± 0.037. The surviving fraction in test [1] (500 nM) was 0.962 ± 0.055; in test [1] (1000 nM) it was 1 ± 0.09. Also, the “area under dose-response curve” value with 17-AAG was found to be 1.53; in [2], 3.36; with SALINOMYCIN, 2.56; in the test with ABT-737, 3.49; in the test with 2-METHOXYESTRADIOL, 3.06; in the test with NUTLIN3, 3.49. Also, the “area under dose-response curve” value with DOXORUBICIN worked out at 2.04; in the test with LAPATINIB, 3.58; with VISMODEGIB, 3.57; with RESVERATROL, 3.59.
As for HMLE3 BREAST, the surviving fraction came to 0.929 ± 0.061 in test [1] (0.5 nM); 0.934 ± 0.049 in [1] (1 nM); 0.895 ± 0.05 in [1] (5 nM); 0.995 ± 0.056 in test [1] (10 nM); 0.764 ± 0.049 in [1] (50 nM); 0.683 ± 0.052 in [1] (100 nM). Besides, the surviving fraction in test [1] (500 nM) amounted to 0.428 ± 0.0075; in [1] (1000 nM) it was 0.41 ± 0.023. Also, the “area under dose-response curve” value was found to be 1.61 with 17-AAG; 2.61 in [2]; 2.7 with SALINOMYCIN; 3.75 with ABT-737; 3.23 with 2-METHOXYESTRADIOL; 1.36 with DOXORUBICIN. Also, the results for the “area under dose-response curve” value with VISMODEGIB, in the test with DECITABINE and with RESVERATROL were 3.06, 2.98 and 3.42, respectively.
For HMT3552 BREAST, the surviving fraction in test [1] (0.5 nM) was determined as 1.15; in [1] (1 nM), 0.971; in [1] (5 nM), 0.993; in test [1] (10 nM) it was 1.05; in [1] (50 nM) it was 0.89; in [1] (100 nM), 0.98. Further, the surviving fraction turned out to be 0.827 in test [1] (500 nM) and 0.803 in test [1] (1000 nM). Also, the “area under dose-response curve” value with ABT-737 is 3.5; with 2-METHOXYESTRADIOL, 2.95; in the test with LAPATINIB it was 3.24; with DECITABINE, 3.71; in the test with FLUOROURACIL, 3.23; with RESVERATROL, 3.64.
With HS57T BREAST, the surviving fraction in test [1] (0.5 nM) was found to be 0.932 ± 0.022; in test [1] (1 nM), 0.899 ± 0.03; in test [1] (5 nM), 0.977 ± 0.067; in test [1] (10 nM) it was 0.952 ± 0.015; in test [1] (50 nM), 0.67 ± 0.03; in test [1] (100 nM), 0.693 ± 0.078. The surviving fraction in test [1] (500 nM) is 0.577 ± 0.021; in [1] (1000 nM), 0.579 ± 0.089.
As to HS578T BREAST, the surviving fraction in test [1] (0.5 nM) came to 0.97 ± 0.1; in [1] (1 nM), 1.03 ± 0.19; in test [1] (5 nM), 0.973 ± 0.098; in test [1] (10 nM) it was 1.02 ± 0.02; in test [1] (50 nM), 0.836 ± 0.021; in [1] (100 nM), 0.801 ± 0.056. For the same test system, the surviving fraction in [1] (500 nM) stood at 0.886 ± 0.096; in test [1] (1000 nM), 0.738 ± 0.095. Besides, the “area under dose-response curve” value with 17-AAG turned out to be 1.45; in test [2], 3.03; with SALINOMYCIN, 2.87; in the test with ABT-737, 3.8; with 2-METHOXYESTRADIOL, 2.71; with DOXORUBICIN it was 1.93. In addition, the “area under dose-response curve” value with LAPATINIB stood at 3.34; with VISMODEGIB, 3.11; with DECITABINE it was 2.99; with FLUOROURACIL, 2.85; with RESVERATROL it was 3.82.
